One may read the inhibition as the relative decrease from the control value, in per cent. Broadly, the melting point is the temperature of the solid-liquid transition.

The subject of one series is Plasmopara Viticola. Briefly: whole plant or invertebrate. The series is classed as in vivo. The conditions noted are these: foliar, read-out: disease control.
Series [1] deals with Puccinia Recondita f. sp. Tritici. Briefly: Puccinia recondita f. sp. tritici / wheat / leaf disc preventative (brown rust). The series is classed as in vivo. The conditions noted are these: foliar, wheat leaf segments cv Kanzler, inoculated 1 day after application, assessed 7-9 days after application, read-out: disease control. The procedure:
3 Puccinia Recondita f. sp. Tritici/Wheat/Leaf Disc Preventative (Brown Rust) Wheat leaf segments cultivated variety (cv) Kanzler were placed on agar in 24-well plates and sprayed with formulated test compound diluted in water. The leaf disks were inoculated with a spore suspension of the fungus 1 day after application. The inoculated leaf segments were incubated at 19° C. and 75% relative humidity under a light regime of 12/12 h (light/dark) in a climate cabinet and the activity of a compound was assessed as percent disease control compared to untreated when an appropriate level of disease damage appears in untreated check leaf segments (7-9 days after application).

A further series has as its system Pythium Ultimum. The experiment in a line: Pythium ultimum / liquid culture (seedling damping off). The series is classed as cell-based. The conditions noted are these: Globisporangium ultimum, potato dextrose broth, 24° C., 2-3 days after application, read-out: disease control (inhibition of growth, photometrically).
Series [2] has as its system Mycosphaerella Graminicola(Septoria Tritici). Briefly: Mycosphaerella graminicola (Septoria tritici) / liquid culture (Septoria blotch). The series is classed as cell-based. The note with it: Zymoseptoria tritici, PDB potato dextrose broth, 24° C., 4-5 days after application, read-out: disease control (inhibition of growth, photometrically). The gist of the method: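 Cryostored conidia mixed into potato dextrose broth and added to compound dispensed from DMSO solution. Incubation at 24 °C; growth inhibition read photometrically 4-5 days after application.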

The next series concerns Gaeumannomyces Graminis. The experiment in a line: Gaeumannomyces graminis / liquid culture (take-all of cereals). It counts as cell-based. The conditions noted are these: PDB potato dextrose broth, 24° C., 4-5 days after application, read-out: disease control (inhibition of growth, photometrically). The gist of the method: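 Mycelial fragments from cryogenic storage mixed into potato dextrose broth and added to test compound in DMSO. Incubated at 24° C; growth inhibition read photometrically 4-5 days after application.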

For series [3], the system named is Monographella Nivalis(Microdochium Nivale). Briefly: Monographella nivalis (Microdochium nivale) / liquid culture (foot rot cereals). It counts as cell-based. The note with it: PDB potato dextrose broth, 24° C., 4-5 days after application, read-out: disease control (inhibition of growth, photometrically). The gist of the method:
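Conidia from cryogenic storage mixed into potato dextrose broth, added to compound pre-dispensed from DMSO solution. Incubated at 24° C.; growth inhibition read photometrically 4-5 days after application.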

In the next series the test system is Fusarium Culmorum. The experiment in a line: microbe, parasite or virus in culture. The conditions noted are these: read-out: disease control (inhibition of growth, photometrically). It counts as cell-based.
Series [4] concerns Phaeosphaeria Nodorum (Septoria Nodorum). The experiment in a line: Phaeosphaeria nodorum (Septoria nodorum) / wheat / leaf disc preventative (glume blotch). The series is classed as in vivo. The note with it: Parastagonospora nodorum, foliar, wheat leaf segments cv Kanzler, inoculated 2 days after application, assessed 5-7 days after application, read-out: disease control. How it is done: 5 Phaeosphaeria Nodorum (Septoria Nodorum)/Wheat/Leaf Disc Preventative (Glume Blotch) Wheat leaf segments cv Kanzler were placed on agar in a 24-well plate and sprayed with formulated test compound diluted in water. The leaf disks were inoculated with a spore suspension of the fungus 2 days after application. The inoculated test leaf disks were incubated at 20° C. and 75% relative humidity under a light regime of 12/12 h (light/dark) in a climate cabinet and the activity of a compound was assessed as percent disease control compared to untreated when an appropriate level of disease damage appears in untreated check leaf disks (5-7 days after application).

Series [5] relates to Botryotinia Fuckeliana(Botrytis Cinerea). Briefly: Botryotinia fuckeliana (Botrytis cinerea) / liquid culture (gray mould). The series is classed as cell-based. The note with it: Vogels broth, 24° C., 3-4 days after application, read-out: disease control (inhibition of growth, photometrically). The procedure:
9 Botryotinia Fuckeliana(Botrytis Cinerea)/Liquid Culture (Gray Mould) Conidia of the fungus from cryogenic storage were directly mixed into nutrient broth (Vogels broth). After placing a DMSO solution of test compound into a 96-well microtiter plate, the nutrient broth containing the fungal spores was added. The test plates were incubated at 24° C. and the inhibition of growth was determined photometrically 3-4 days after application.

Series [6] has as its system Glomerella Lagenarium(Colletotrichum Ladenarium). Briefly: Glomerella lagenarium (Colletotrichum lagenarium) / liquid culture (anthracnose). The note with it: PDB potato dextrose broth, 24° C., 3-4 days after application, read-out: disease control (inhibition of growth, photometrically). The series is classed as cell-based. The gist of the method: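 Cryostored conidia were suspended in potato dextrose broth and added to compound in DMSO. Cultures were incubated at 24 °C. Growth inhibition was measured photometrically 3–4 days after application.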

For series [7], the system named is Mycosphaerella Arachidis(Cercospora Arachidicola). Briefly: Mycosphaerella arachidis (Cercospora arachidicola) / liquid culture (early leaf spot). The series is classed as cell-based. The note with it: PDB potato dextrose broth, 24° C., 4-5 days after application, read-out: disease control (inhibition of growth, photometrically). The procedure, abridged: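 Cryo-stored conidia in potato dextrose broth were added to compound in DMSO in microtiter plates. After incubation at 24 °C, growth inhibition was measured photometrically 4-5 days after application.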

For series [8], the system named is Thanatephorus Cucumeris(Rhizoctonia Solani). Briefly: Thanatephorus cucumeris (Rhizoctonia solani) / liquid culture (foot rot, damping-off). It counts as cell-based. The conditions noted are these: PDB potato dextrose broth, 24° C., 3-4 days after application, read-out: disease control (inhibition of growth, photometrically). How it is done:
16 Thanatephorus Cucumeris(Rhizoctonia Solani)/Liquid Culture (Foot Rot, Damping-Off) Mycelia fragments of a newly grown liquid culture of the fungus were directly mixed into nutrient broth (PDB potato dextrose broth). After placing a DMSO solution of the test compounds into a 96-well microtiter plate at an application rate of 200 ppm, the nutrient broth containing the fungal material was added. The test plates were incubated at 24° C. and the inhibition of growth was determined photometrically 3-4 days after application.

The subject of the next series is Sclerotinia Sclerotiorum. The experiment in a line: Sclerotinia sclerotiorum / liquid culture (cottony rot). The note with it: PDB potato dextrose broth, 24° C., 3-4 days after application, read-out: disease control (inhibition of growth, visually). The series is classed as cell-based. The procedure, abridged:
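Mycelial fragments from fresh liquid culture in potato dextrose broth added to test compounds in DMSO. Incubated at 24° C; growth inhibition scored visually 3-4 days after application.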

The structures appear in SMILES notation.

In turn, `Cc1nc(C)c(-c2cc3c(cc2Cl)COB3O)s1` [Compound 1] gave a melting point of 155 to 160 °C. Besides, the pest or weed control at 200 ppm in the series with Plasmopara Viticola is not below 80%. Further, the pest or weed control at 200 ppm in [1] was not below 80%. Also, the inhibition at 20 ppm in the series with Pythium Ultimum was not below 80%. Further, in series [2], the inhibition at 20 ppm is not below 80%. The inhibition at 20 ppm in the series with Gaeumannomyces Graminis is not below 80%. Further, the inhibition at 20 ppm in [3] was not below 80%. In addition, the inhibition at 20 ppm with Fusarium Culmorum was not below 80%.
In turn, `OB1OCc2cc(Cl)c(-c3ccco3)cc21` [Compound 2, 5-chloro-6-(2-furyl)-1-hydroxy-3H-2,1-benzoxaborole] came in with a melting point of 142 to 147 °C. In the series on Plasmopara Viticola, the pest or weed control at 200 ppm is not below 80%. Further, in [4], the pest or weed control at 200 ppm is not below 80%. Further, in the series on Pythium Ultimum, the inhibition at 20 ppm is not below 80%. In addition, the inhibition at 20 ppm in [5] was not below 80%. Further, in [6], the inhibition at 20 ppm is not below 80%. Also, the inhibition at 20 ppm in series [7] was not below 80%. Besides, in [2], the inhibition at 20 ppm is not below 80%. Also, the inhibition at 20 ppm in series [3] is not below 80%. Moreover, the inhibition at 20 ppm in the series on Fusarium Culmorum was not below 80%. For the same compound, the inhibition at 20 ppm in [8] was not below 80%. Further, the inhibition at 20 ppm in the series with Sclerotinia Sclerotiorum is not below 80%.
For `OB1OCc2cc(F)c(-c3ccsc3)cc21` [Compound 12, 5-fluoro-1-hydroxy-6-(3-thienyl)-3H-2,1-benzoxaborole], the pest or weed control at 200 ppm (in the series on Plasmopara Viticola; in series [1]) was not below 80% in each case. For the same compound, the inhibition at 20 ppm (with Pythium Ultimum; in [5]; in series [7]; in series [2]; with Gaeumannomyces Graminis; in series [3]) was not below 80% in each case. Further, the inhibition at 20 ppm (with Fusarium Culmorum; in [8]; in the series with Sclerotinia Sclerotiorum) was not below 80% each time.
`OB1OCc2cc(Cl)c(-c3cncs3)cc21` [Compound 25]: the pest or weed control at 200 ppm (in the series on Plasmopara Viticola; in series [4]) was not below 80% throughout. The inhibition at 20 ppm (in the series with Pythium Ultimum; in series [5]; in series [6]; in [7]; in [2]; with Gaeumannomyces Graminis) was not below 80% throughout. In addition, the inhibition at 20 ppm (in series [3]; in the series with Fusarium Culmorum; in series [8]; in the series on Sclerotinia Sclerotiorum) was not below 80% each time.
Regarding `CO/N=C/c1ccc(-c2cc3c(cc2F)COB3O)o1` [Compound 28], the melting point was 125 to 140 °C. Besides, in [1], the pest or weed control at 200 ppm was not below 80%. The inhibition at 20 ppm with Pythium Ultimum is not below 80%. For the same compound, the inhibition at 20 ppm in series [6] is not below 80%. For the same compound, in series [2], the inhibition at 20 ppm was not below 80%.
For `Cc1ccc(-c2cc3c(cc2Cl)COB3O)s1` [Compound 38], the pest or weed control at 200 ppm (in the series with Plasmopara Viticola; in [1]) was not below 80% in each case. Also, the inhibition at 20 ppm (in the series with Pythium Ultimum; in series [5]; in series [6]; in series [7]; in series [2]; in the series with Gaeumannomyces Graminis) was not below 80% throughout. The inhibition at 20 ppm (in series [3]; with Fusarium Culmorum; in series [8]; in the series with Sclerotinia Sclerotiorum) was not below 80% throughout.
Compound `OB1OCc2ccc(-c3ncno3)cc21` [Compound 49] came in with a melting point of 179 to 180 °C. The pest or weed control at 200 ppm in the series with Plasmopara Viticola is not below 80%. Also, the pest or weed control at 200 ppm in [4] was not below 80%. Moreover, the inhibition at 20 ppm in the series with Pythium Ultimum was not below 80%. Moreover, the inhibition at 20 ppm in series [5] was not below 80%. Further, in [6], the inhibition at 20 ppm was not below 80%. Also, the inhibition at 20 ppm in [7] is not below 80%. In addition, the inhibition at 20 ppm in series [2] was not below 80%. The inhibition at 20 ppm with Gaeumannomyces Graminis is not below 80%. Further, in series [3], the inhibition at 20 ppm was not below 80%. The inhibition at 20 ppm in the series on Fusarium Culmorum is not below 80%. For the same compound, in series [8], the inhibition at 20 ppm is not below 80%. Also, the inhibition at 20 ppm in the series with Sclerotinia Sclerotiorum is not below 80%.
Consider `Cc1cscc1-c1cc2c(cc1F)COB2O` [Compound 50], for which the pest or weed control at 200 ppm (in the series on Plasmopara Viticola; in series [4]) was not below 80% each time. Also, the inhibition at 20 ppm (in the series with Pythium Ultimum; in series [5]; in [6]; in series [7]; in [2]; with Gaeumannomyces Graminis) was not below 80% throughout. Also, the inhibition at 20 ppm (in series [3]; in the series with Fusarium Culmorum; in series [8]; in the series on Sclerotinia Sclerotiorum) was not below 80% throughout.
In the case of `Cc1cc(-c2cc3c(cc2Cl)COB3O)c(C#N)o1` [Compound 66], the pest or weed control at 200 ppm (in the series on Plasmopara Viticola; in series [1]) was not below 80% in each case. Also, the inhibition at 20 ppm in the series on Pythium Ultimum and in the series on Gaeumannomyces Graminis was not below 80% throughout.
In the case of `COc1nccc(-c2cc3c(cc2Cl)COB3O)c1Cl` [Compound 73], the pest or weed control at 200 ppm (in the series on Plasmopara Viticola; in series [1]) was not below 80% each time. The inhibition at 20 ppm (with Pythium Ultimum; in [5]; in series [6]; in series [7]; in series [2]; with Gaeumannomyces Graminis) was not below 80% each time. Further, the inhibition at 20 ppm (in series [3]; with Fusarium Culmorum; in series [8]; in the series on Sclerotinia Sclerotiorum) was not below 80% throughout.
Regarding `Cc1cc(-c2cc3c(cc2Cl)COB3O)c(C)s1` [Compound 90], in series [1], the pest or weed control at 200 ppm was not below 80%. Also, the inhibition at 20 ppm (in the series with Pythium Ultimum; in [6]; in series [7]; in series [2]; in the series with Gaeumannomyces Graminis; in series [3]) was not below 80% throughout. Also, in series [8], the inhibition at 20 ppm was not below 80%.
With `OB1OCc2ccc(-c3ncon3)cc21` [Compound 92], the melting point was in the range of 209 to 211 °C. For the same compound, in series [1], the pest or weed control at 200 ppm was not below 80%. The inhibition at 20 ppm in the series on Pythium Ultimum is not below 80%. The inhibition at 20 ppm in [5] is not below 80%. The inhibition at 20 ppm in series [6] is not below 80%. Moreover, the inhibition at 20 ppm in series [7] was not below 80%. Besides, the inhibition at 20 ppm in [2] is not below 80%. The inhibition at 20 ppm in the series with Gaeumannomyces Graminis was not below 80%. In series [3], the inhibition at 20 ppm was not below 80%. In addition, the inhibition at 20 ppm with Fusarium Culmorum is not below 80%. In series [8], the inhibition at 20 ppm was not below 80%. Also, the inhibition at 20 ppm with Sclerotinia Sclerotiorum was not below 80%.

Source of the values: US10314308B2, “Microbiocidal benzoxaboroles” (SYNGENTA PARTICIPATIONS AG, priority 2015, dated 2019).
